Values of other authors in patent US20120009644A1, “Tissue Implants for Implantation and Methods for Preparing the Same” (CRYOLIFE, INC., priority 2010, published 2012).

Tested on: sensitive bacteria
Conditions: literature review

## NCC[C@H](O)C(=O)N[C@@H]1C[C@H](N)[C@@H](O[C@H]2O[C@H](CN)[C@@H](O)[C@H](O)[C@H]2O)[C@H](O)[C@H]1O[C@H]1O[C@H](CO)[C@@H](O)[C@H](N)[C@H]1O [amikacin]
  minimum inhibitory concentration against sensitive bacteria (MIC) range: 0.125 to 32 µg/mL
